Measurements from the supplement of paper PMC10307832.

Compound: COc1cc(Nc2ncc3c(n2)-c2ccc(Cl)cc2C(c2c(F)cccc2OC)=NC3)ccc1C(=O)O [Alisertib]
Test: relative viability (nuclei count vs DMSO), 5 days (fraction); higher = more cells survive
How it was run: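 In 1536-well plates, lung cancer cell lines rested overnight at 37 °C before five library-drug doses (not always all listed), √10 apart, were pinned onto vehicle-anchored plates. Nuclei were counted with MetaXpress from 4× Hoechst images taken after 5 days without medium change. Viability compares treated-well with vehicle-well nuclei as a median over plates, and plates needed control CV below 25% plus at least one doubling to pass.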

Cell Line	relative viability (0.005 µM)	relative viability (0.01581 µM)	relative viability (0.05 µM)	relative viability (0.1581 µM)	relative viability (0.5 µM)
NCI-H441	0.839	0.662	0.201	0.179	0.188
NCI-H1793	0.745	0.473	0.411	0.264	0.233
NCI-H23	0.752	0.529	0.272	0.217	0.197
HARA	0.897	0.94	0.656	0.24	0.185
NCI-H1792	0.81	0.68	0.538	0.232	0.109
NCI-H1703	0.871	0.721	0.57	0.241	0.143
NCI-H2342	0.812	0.978	0.776	0.551	0.42
CAL-12T	0.827	0.636	0.229	0.193	0.179
NCI-H838	0.833	0.831	0.617	0.313	0.191
NCI-H2085	0.936	0.955	0.572	0.327	0.385
NCI-H1395	0.877	0.862	0.535	0.452	0.394
NCI-H1648	0.833	0.755	0.606	0.255	0.242
NCI-H460	0.922	0.844	0.49	0.0862	0.0474
A549	0.877	0.633	0.331	0.0691	0.0535
IA-LM	0.795	0.823	0.569	0.357	0.0972
EKVX	0.907	0.85	0.43	0.231	0.186
ChaGo-K-1	0.84	0.855	0.348	0.245	0.223
NCI-H1755	0.939	0.963	0.805	0.386	0.36
NCI-H2228	0.778	0.85	0.531	0.158	0.189
NCI-H2087	0.941	0.807	0.312	0.176	0.201
LU99A	0.961	0.853	0.579	0.288	0.193
NCI-H1355	0.881	0.771	0.774	0.255	0.204
NCI-H520	0.843	0.722	0.462	0.451	0.317
NCI-H727	0.817	0.929	0.542	0.384	0.401
NCI-H661	1.01	0.965	0.663	0.415	0.374
NCI-H650	0.724	0.856	0.394	0.258	0.209

Cell Line	relative viability (0.005 µM)	relative viability (0.01581 µM)	relative viability (0.05 µM)	relative viability (0.1581 µM)	relative viability (0.5 µM)
201T	0.985	0.964	0.966	0.466	0.386
PC-14	0.827	0.846	0.584	0.156	0.0817
UMC-11	0.437	0.3	0.211	0.176	0.186
PC-3 [JPC-3]	0.974	0.976	0.932	0.48	0.398
LK-2	0.962	0.853	0.497	0.297	0.202
COR-L23	1.02	0.846	0.484	0.203	0.123
NCI-H1944	0.923	1.08	0.789	0.39	0.273
HCC-78	0.858	0.642	0.303	0.284	0.328
NCI-H2405	0.952	0.967	0.833	0.41	0.282
SW 1573	0.919	0.644	0.372	0.213	0.147
EMC-BAC-2	0.681	0.625	0.455	0.299	0.259
NCI-H1650	0.846	0.736	0.289	0.192	0.224
NCI-H647	0.733	0.654	0.318	0.152	0.0801
LCLC-97TM1	0.931	0.791	0.496	0.137	0.121
H3255	0.94	0.859	0.586	0.251	0.205
LXF-289	0.844	0.672	0.46	0.183	0.195
NCI-H596	0.882	1	1.07	0.816	0.4
LC-2-ad	0.736	0.594	0.347	0.245	0.225
SK-MES-1	0.913	0.947	0.561	0.326	0.16
A-427	0.798	0.681	0.333	0.231	0.19
NCI-H322M	0.874	0.894	0.812	0.501	0.493
HCC-366	1	0.813	0.0889	0.0461	0.054
NCI-H1975	0.85	0.828	0.565	0.317	0.207
NCI-H1437	0.896	0.836	0.605	0.344	0.203
NCI-H2009	0.926	0.97	0.513	0.303	0.254
NCI-H1651	0.859	0.892	0.571	0.298	0.209

Cell Line	relative viability (0.005 µM)	relative viability (0.01581 µM)	relative viability (0.05 µM)	relative viability (0.1581 µM)	relative viability (0.5 µM)
LCLC-103H	0.903	1.04	0.875	0.392	0.293
NCI-H1666	0.904	0.814	0.689	0.534	0.438
NCI-H1734	0.802	0.731	0.417	0.299	0.193
EPLC-272H	0.834	0.758	0.646	0.127	0.139
NCI-H2023	0.838	0.727	0.566	0.227	0.109
BEN	0.88	0.812	0.374	0.234	0.209
COR-L 105	0.863	0.952	0.765	0.305	0.303
ABC-1	0.794	0.845	0.787	0.286	0.293
HCC-15	0.862	0.723	0.513	0.138	0.138
NCI-H2170	0.94	0.883	0.815	0.423	0.323
RERF-LC-KJ	0.929	0.792	0.597	0.254	0.247
NCI-H1993	0.906	0.92	0.621	0.468	0.516
NCI-H358	0.791	0.797	0.2	0.147	0.14
NCI-H1563	0.999	0.943	0.871	0.903	0.647
EBC-1	0.875	0.806	0.373	0.183	0.162
NCI-H1915	0.816	0.773	0.572	0.383	0.25
SK-LU-1	0.856	0.802	0.447	0.333	0.232
LOU-NH91	0.938	0.958	0.734	0.478	0.398
NCI-H2347	1.01	0.906	0.862	0.703	0.428
NCI-H2126	0.938	0.941	0.699	0.361	0.314
HCC-827	0.947	1.01	0.812	0.363	0.324
Calu-6	0.863	0.669	0.319	0.196	0.186
NCI-H3122	0.943	0.977	0.831	0.405	0.295
HOP-62	0.918	0.867	0.505	0.237	0.17
HCC-44	0.933	0.928	0.816	0.275	0.212
